Article PMC7567103 (Nature Communications, 2020)

Key:
Assay type in all cases: cell-based
GHRHR L354A = biological target: T1, GHRHR L354A (Homo sapiens, UniProt Q02643, L354A); test: cAMP accumulation, L354A; conditions: mean ± SEM, n ≥ 3
T1 construct: GHRHR(23-423)-; HA signal peptide (replaces native signal M1-G22) (N); expressed in transfected cells; host or cells: HEK 293 T
Source text: (§1) Fig. 2 Molecular recognition of GHRH by GHRHR and comparison of that with LA-PTH–PTH1R and GLP-1–GLP-1R. a Detailed interaction between GHRH and the TMD pocket of GHRHR with hydrogen bonds shown as dotted lines. b, c Pairwise comparison of GHRH bound to GHRHR with GLP-1 and LA-PTH in complex with their corresponding receptors, showing the relative positions of peptide ligands. Lime green, GHRHR; blue, GHRH; red, PTH1R and LA-PTH; purple, GLP-1R and GLP-1. d–f The effects of mutation in the ligand-binding pocket on cAMP accumulation. cAMP levels were measured in wild-type (WT) receptor and alanine mutants in ECL1, 2, and 3 (d), TM1, 2, and 3 (e), and TM5, 6, and 7 (f). cAMP signals were normalized to the maximum response of WT and concentration–response curves were analyzed using a three-parameter logistic equation. Data shown are means ± S.E.M. of at least three independent experiments (n = 3–5), conducted in triplicate. Source data are provided as a Source data file.
(§2) GHRH-stimulated cAMP accumulation was measured by a LANCE Ultra cAMP kit (PerkinElmer). […] After 1 h RT incubation, TR-FRET signals (excitation: 320 nm, emission: 615 and 665 nm) were measured by an EnVision (PerkinElmer).

GHRHR S209A = biological target: T2, GHRHR S209A (Homo sapiens, UniProt Q02643, S209A); test: cAMP accumulation, S209A; conditions: mean ± SEM, n ≥ 3
T2 construct: GHRHR(23-423)-; HA signal peptide (replaces native signal M1-G22) (N); expressed in transfected cells; host or cells: HEK 293T, pcDNA3.1, transient
T2 sequence (Q02643 23-423 S209A): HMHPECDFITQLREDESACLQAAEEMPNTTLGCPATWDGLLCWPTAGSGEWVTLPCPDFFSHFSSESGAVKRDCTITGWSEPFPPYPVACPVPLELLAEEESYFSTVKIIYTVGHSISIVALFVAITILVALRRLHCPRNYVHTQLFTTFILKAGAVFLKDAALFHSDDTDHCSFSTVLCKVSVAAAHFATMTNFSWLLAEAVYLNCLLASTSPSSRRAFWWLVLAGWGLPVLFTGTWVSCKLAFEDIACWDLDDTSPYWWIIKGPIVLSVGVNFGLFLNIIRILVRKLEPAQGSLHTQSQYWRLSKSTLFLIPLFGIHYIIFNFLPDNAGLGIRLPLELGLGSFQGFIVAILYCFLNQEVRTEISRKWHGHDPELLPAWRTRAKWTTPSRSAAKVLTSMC
Source text: as §1, §2

GHRHR E361A = biological target: T3, GHRHR E361A (Homo sapiens, UniProt Q02643, E361A); test: cAMP accumulation, E361A; conditions: mean ± SEM, n ≥ 3
T3 construct: GHRHR(23-423)-; HA signal peptide (replaces native signal M1-G22) (N); expressed in transfected cells; host or cells: HEK 293 T
T3 sequence (Q02643 23-423 E361A): as the sequence (Q02643 23-423 S209A) above, with A187S, E339A counted along it
Source text: as §1, §2

GHRHR V179A = biological target: T4, GHRHR V179A (Homo sapiens, UniProt Q02643, V179A); test: cAMP accumulation, V179A; conditions: mean ± SEM, n ≥ 3
T4 construct: GHRHR(23-423)-; HA signal peptide (replaces native signal M1-G22) (N); expressed in transfected cells; host or cells: HEK 293T, pcDNA3.1, transient
T4 sequence (Q02643 23-423 V179A): as the sequence (Q02643 23-423 S209A) above, with V157A, A187S counted along it
Source text: as §1, §2

[1] = biological target: T5, GHRHR(23-405)-15AA-LgBiT-2MBP (Homo sapiens, UniProt Q02643); test: cAMP accumulation, construct GHRHR(23-405)-15AA-LgBiT-2MBP (Supplementary Fig. 2b); conditions: HEK 293T; mean ± SEM, n = 8-10
T5 construct: 24 h after transfection with GHRHR(23-423), GHRHR(23-405), GHRHR(23-405)-LgBiT-2MBP, or HA-Flag-GHRHR (WT and mutants); HA signal peptide (replaces native signal M1-G22) (N); expressed in transfected cells; host or cells: HEK 293 T
T5 sequence (Q02643 23-405): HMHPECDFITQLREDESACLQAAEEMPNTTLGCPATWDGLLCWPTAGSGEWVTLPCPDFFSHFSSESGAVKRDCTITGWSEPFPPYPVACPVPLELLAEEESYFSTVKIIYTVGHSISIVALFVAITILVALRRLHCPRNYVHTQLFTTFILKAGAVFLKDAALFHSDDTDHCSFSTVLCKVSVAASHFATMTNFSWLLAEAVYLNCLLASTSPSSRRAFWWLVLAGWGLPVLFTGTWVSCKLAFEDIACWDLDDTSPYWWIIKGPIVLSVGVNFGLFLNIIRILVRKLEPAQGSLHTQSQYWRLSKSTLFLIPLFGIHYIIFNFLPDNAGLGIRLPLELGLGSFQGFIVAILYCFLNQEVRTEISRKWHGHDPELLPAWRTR
Procedure: GHRH-stimulated cAMP accumulation was measured by a LANCE Ultra cAMP kit (PerkinElmer). Briefly, 24 h after transfection with GHRHR(23-423), GHRHR(23-405), GHRHR(23-405)-LgBiT-2MBP, or HA-Flag-GHRHR (WT and mutants), HEK 293 T cells (3000/well in 384-well white plates, PerkinElmer) were digested by 0.2% (w/v) EDTA and 5 μL stimulation buffer (HBSS supplemented with 5 mM HEPES, 0.5 mM IBMX, and 0.1% (w/v) BSA, pH 7.4). Different concentrations (5 μL) of GHRH were then added and the stimulation lasted for 30 min at RT. The reaction was stopped by adding 5 μL Eu-cAMP tracer and 5 μL ULight-anti-cAMP. After 1 h RT incubation, TR-FRET signals (excitation: 320 nm, emission: 615 and 665 nm) were measured by an EnVision (PerkinElmer).
223 Supplementary Ta b l e 1. Effects of GHRH-mediated cAMP accumulation.
Receptor cAMP Cell surface expression Binding
pEC50 Emax (% WT) (% WT) pIC50 […]
225 to determine pEC50 and Emax values. pEC50 is the negative logarithm of the molar
226 concentration of agonist that induced half the maximal response. Cell surface […]
228 Flag antibody (Sigma-Aldrich, 1:300); Donkey anti-Mouse Alexa Fluor 488-
229 conjugated secondary antibody, (ThermoFisher Scientific, 1:1000)] on the […]
231 Binding data were analyzed using a three-parameter logistic equation to […]
234 determine statistical difference. *P<0.01; ND, not determined.

GHRHR H194A = biological target: T6, GHRHR H194A (Homo sapiens, UniProt Q02643, H194A); test: cAMP accumulation, H194A; conditions: mean ± SEM, n ≥ 3
T6 construct: GHRHR(23-423)-; HA signal peptide (replaces native signal M1-G22) (N); expressed in transfected cells; host or cells: HEK 293T, pcDNA3.1, transient
T6 sequence (Q02643 23-423 H194A): as the sequence (Q02643 23-423 S209A) above, with H172A, A187S counted along it
Source text: as §1, §2

GHRHR W282A = biological target: T7, GHRHR W282A (Homo sapiens, UniProt Q02643, W282A); test: cAMP accumulation, W282A; conditions: mean ± SEM, n ≥ 3
T7 construct: GHRHR(23-423)-; HA signal peptide (replaces native signal M1-G22) (N); expressed in transfected cells; host or cells: HEK 293T, pcDNA3.1, transient
T7 sequence (Q02643 23-423 W282A): as the sequence (Q02643 23-423 S209A) above, with A187S, W260A counted along it
Source text: as §1, §2

T1 sequence (Q02643 23-423 L354A): as the sequence (Q02643 23-423 S209A) above, with A187S, L332A counted along it

Compound: CC[C@H](C)[C@H](NC(=O)[C@H](C)NC(=O)[C@H](CC(=O)O)NC(=O)[C@H](C)NC(=O)[C@@H](N)Cc1ccc(O)cc1)C(=O)N[C@@H](Cc1ccccc1)C(=O)N[C@H](C(=O)N[C@@H](CC(N)=O)C(=O)N[C@@H](CO)C(=O)N[C@@H](Cc1ccc(O)cc1)C(=O)N[C@@H](CCCNC(=N)N)C(=O)N[C@@H](CCCCN)C(=O)N[C@H](C(=O)N[C@@H](CC(C)C)C(=O)NCC(=O)N[C@@H](CCC(N)=O)C(=O)N[C@@H](CC(C)C)C(=O)N[C@@H](CO)C(=O)N[C@@H](C)C(=O)N[C@@H](CCCNC(=N)N)C(=O)N[C@@H](CCCCN)C(=O)N[C@@H](CC(C)C)C(=O)N[C@@H](CC(C)C)C(=O)N[C@@H](CCC(N)=O)C(=O)N[C@@H](CC(=O)O)C(=O)N[C@H](C(=O)N[C@@H](CCSC)C(=O)N[C@@H](CO)C(=O)N[C@@H](CCCNC(=N)N)C(=O)N[C@@H](CCC(N)=O)C(=O)N[C@@H](CCC(N)=O)C(=O)NCC(=O)N[C@@H](CCC(=O)O)C(=O)N[C@@H](CO)C(=O)N[C@@H](CC(N)=O)C(=O)N[C@@H](CCC(N)=O)C(=O)N[C@@H](CCC(=O)O)C(=O)N[C@@H](CCCNC(=N)N)C(=O)NCC(=O)N[C@@H](C)C(=O)N[C@@H](CCCNC(=N)N)C(=O)N[C@@H](C)C(=O)N[C@@H](CCCNC(=N)N)C(=O)N[C@@H](CC(C)C)C(N)=O)[C@@H](C)CC)C(C)C)[C@@H](C)O [GHRH, Growth hormone-releasing hormone]
- EC50 (GHRHR L354A): 0.182 nM
- Emax (GHRHR L354A): 98.79±1.84 % WT
- EC50 (GHRHR S209A): 0.11 nM
- Emax (GHRHR S209A): 100.52±0.43 % WT
- EC50 (GHRHR E361A): 1.05 nM
- Emax (GHRHR E361A): 18.75±4.38 % WT
- EC50 (GHRHR V179A): 0.288 nM
- Emax (GHRHR V179A): 101.24±3.06 % WT
- EC50 [1]: 2.88 nM
- Emax [1]: 78.82±10.52 % WT
- EC50 (GHRHR H194A): 0.251 nM
- Emax (GHRHR H194A): 98.01±1.25 % WT
- EC50 (GHRHR W282A): 13.2 nM
- Emax (GHRHR W282A): 101.88±5.62 % WT
